ChEMBL document CHEMBL1201862, “PubChem BioAssay data set” (2004)
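Tested at 5 concentrations; 48 h exposure; 96-well plates; endpoints linearly interpolated, else capped at highest concentration. GI50 is the concentration that inhibits growth by half.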 Active and inactive are the calls of the source. Rule as the data show it: active = GI50 up to about 1.1 µM and inactive = higher.

Experiments:
Experiment in all cases: NCI tumour cell line growth inhibition, 48 h
HOP-18 = tested on: HOP-18
M19-MEL = tested on: M19-MEL
LXFL 529 = tested on: LXFL 529
DLD-1 = tested on: DLD-1
RXF 631 = tested on: RXF 631
KM-20L2 = tested on: KM-20L2
XF498 = tested on: XF498
DMS-273 = tested on: DMS-273
DMS-114 = tested on: DMS-114

Measured: GI50

C/C(=N/NC(=O)c1ccccc1O)c1ccc(/C(C)=N\NC(=O)c2ccccc2O)c2nc3cc(C)c(C)cc3nc12
inactive: HOP-18 44.2 µM | M19-MEL > 100 µM | LXFL 529 > 100 µM | DLD-1 > 100 µM | RXF 631 > 100 µM | KM-20L2 > 100 µM | XF498 > 100 µM | DMS-273 > 100 µM | DMS-114 > 100 µM

CC(C)c1ccc(/C=C(\NC(=O)c2ccccc2)c2nc3ccccc3[nH]2)cc1
inactive: HOP-18 26.4 µM | M19-MEL 33.3 µM | LXFL 529 31.8 µM | DLD-1 30.3 µM | RXF 631 23.6 µM | KM-20L2 58.1 µM | XF498 55.3 µM | DMS-273 37.9 µM | DMS-114 25.3 µM

COc1ccc(C2=Nc3ccccc3NC(=O)C2)cc1
inactive: HOP-18 > 100 µM | M19-MEL 48.3 µM | LXFL 529 > 100 µM | DLD-1 62.8 µM | RXF 631 > 100 µM | KM-20L2 55.7 µM | XF498 20.1 µM | DMS-273 27.4 µM | DMS-114 20.7 µM
